Results from US20030031688A1, “Cosmetic composition with improved skin moisturizing properties” (priority 2001, published 2003).

Assay: Moisture uptake of powder samples in controlled humidity chamber
Type: physicochemical
Settings: 65% relative humidity at 25° C.
Experimental: A mixture of urea and coenzyme Q10 (9:1 Wt./wt.)) was prepared as a dry blend of the raw materials by manually mixing urea (9 parts by weight) and coenzyme Q10 (1 part by weight), with mortar and pestle grinding as necessary, to provide an essentially homogeneous powder. The moisture-absorbing properties were determined based on the amount of moisture uptake over time. For comparison, the moisture-absorbing properties of powder samples of the unblended individual raw materials, i.e., urea alone and coenzyme Q10 alone, were measured.
The samples were placed in a controlled humidity chamber (65% relative humidity at 25° C.) and the mass of each sample was measured at various time points. The water uptake is reflected by the increase in mass over time.
The percentage values shown in Table 1 reflect the percentage increase in mass relative to the weight of the starting sample (prior to being placed in the controlled humidity chamber). The expected percentage values for the blend (“Expected”) were calculated on the basis of the fractional contribution of each component alone, as represented by the following equation: Expected %=(0.9×% measured for urea alone)+(0.1×% measured for Q10 alone).

SMILES	percentage increase in mass relative to the weight of the starting sample (water uptake) (time 5)	percentage increase in mass relative to the weight of the starting sample (water uptake) (time 10)	percentage increase in mass relative to the weight of the starting sample (water uptake) (time 15)	percentage increase in mass relative to the weight of the starting sample (water uptake) (time 30)	percentage increase in mass relative to the weight of the starting sample (water uptake) (time 45)	percentage increase in mass relative to the weight of the starting sample (water uptake) (time 1 hr)
COC1=C(OC)C(=O)C(C/C=C(\C)CC/C=C(\C)CC/C=C(\C)CC/C=C(\C)CC/C=C(\C)CC/C=C(\C)CC/C=C(\C)CC/C=C(\C)CC/C=C(\C)CCC=C(C)C)=C(C)C1=O [Product Q10, coenzyme Q10]	1.0%	0.1%	0.5%	1.5%	2.4%	3.1%
NC(N)=O [Urea]	31.0%	4.0%	5.5%	10.6%	16.6%	22.4%
